Values quoted from earlier work, collected in patent US8569273B2, “Ophthalmic formulations of cetirizine and methods of use” (Aciex Therapeutics, Inc., priority 2009, dated 2013).

Conditions: ophthalmic antihistamine

**Q.** Which duration of action does the source give for `O=C(O)CCCN1CCC(O[C@@H](c2ccc(Cl)cc2)c2ccccn2)CC1` [bepotastine] here?
**A.** 8 h

**Q.** For `C[C@@H]1CN([C@H]2CC[C@](C#N)(c3ccc(F)cc3)CC2)CC[C@]1(C(=O)O)c1ccccc1` [levocabastine], which duration of action is on record?
**A.** 2 to 4 h
